Laboratory results taken from patent publication US7658928B2, “Method of vaccination comprising administering an antigen and a cathelicidin derived antimicrobial peptide” (Intercell AG, priority 2000, dated 2010).

Key:
[1] = test system: neutrophils; settings: Agerberth, Charo et al. 2000; De, Chen et al. 2000; cited from earlier work
[2] = test system: peripheral blood monocytes; settings: utilizing formyl peptide receptor-like 1 (FPRL1) (De, Chen et al. 2000); cited from earlier work
[3] = test system: immature and mature dendritic cells; settings: Yang, Chen et al. 2001; cited from earlier work
[4] = test system: mast cells; settings: mast cells (Niyonsaba, Someya et al. 2001); cited from earlier work
[5] = test system: CD4+ T cells; settings: Agerberth, Charo et al. 2000; De, Chen et al. 2000; cited from earlier work
[6] = test system: human CD1a positive dendritic cells; assay: TRANSloading of human dendritic cells with MHC class I and MHC class II peptides by LL-37; assay type: cell-based
Experimental: To compare the efficiency of peptide delivery of these diverse “carrier-peptides”, the amount of peptide uptake into APCs was monitored by incubating P388D1 cells (murine monocyte-macrophage antigen presenting cell line; purchased from ATCC (TIB-63), or human CD1a positive (derived from human HLA-A2 positive donors, CD14+ positive PBMCS) dendritic cells, for 1 h at 37° C. with a constant amount of fuorescein-tagged peptide alone or in combination with diverse “carrier-peptides” at concentrations indicated. Before analysing the cells by flow cytometry, the cells were washed extensively to remove free peptide. The relative amount of fluorescein-tagged peptide taken up by the cells was measured by flow-cytometry.
FIG. 8a • (1) no peptide (cells alone) • (2) 2.5 μg FL-[…] (SEQ ID NO:23) (MHC class I; peptide alone) • (3) 2.5 μg FL-[…] (SEQ ID NO:23) (MHC class I)+30 μg LL-37 (SEQ ID:2)
FIG. 8b • (1) no peptide (cells alone) • (2) 2.5 μg FL-[…] (SEQ ID NO:24) (MHC class II; peptide alone) • (3) 2.5 μg FL-[…] (SEQ ID NO:24) (MHC class II)+30 μg LL-37 (SEQ ID:2)

[7] = test system: IFN-γ-producing specific cells (TRP-2 181-188 VYDFFVWL); assay: IFN-γ ELISpot after vaccination of mice with TRP-2 peptide plus carrier-peptide; assay type: in vivo, mice (C57BL/6); settings: s.c. days 0, 7, 14, 100 μg VYDFFVWL + carrier-peptide, two weeks after 3rd vaccination, versus peptide alone or peptide plus poly-L-arginine; for IFN-γ-producing specific cells, splenocytes: FIG. 10
Experimental: The groups of mice were injected as follows (amounts indicated/per mouse). • (1) 100 μg […] (SEQ ID NO:25) • (2) 100 μg […] (SEQ ID NO:25)+100 μg poly-L-arginine • (3) 100μ […] (SEQ ID NO:25)+[…] cathelicidin derived antimicrobial peptide (SEQ ID NO:1) • (4) 100 μg […] (SEQ ID NO:25)+500 μg bovine indolicidin (SEQ ID NO:3)
Two weeks after the 3rd vaccination, draining (inguinal) lymph nodes and spleens were removed and […].

[8] = test system: P388D1 cells (murine monocyte-macrophage antigen presenting cell line); assay: TRANSloading assay: uptake of fluorescein-tagged antigenic peptide into P388D1 cells with carrier-peptides, flow cytometry; assay type: cell-based; settings: for uptake of antigens in dendritic cells: summary statement, cells of mice
[9] = test system: tumor growth; settings: co-injection with an appropriate peptide as a vaccine, mouse models (Schmidt, Buschle et al. 1997); cited from earlier work

Which “chemotactic activity for neutrophils” value [1] does the source give for “LL-37: human cathelicidin derived antimicrobial peptide, C-terminal domain of hCAP-18 (LLGDFFRKSKEKIGKEFKRIVQRIKDFLRNLVPRTES)” here?
The value was “exert chemotactic activity”.

And the “chemotaxis of peripheral blood monocytes” value [2]?
Its value is “induces chemotaxis”.

What about the “chemotactic activity for immature and mature dendritic cells” value [3] of the same substance?
The value was “no chemotactic activity”.

And the histamine release [4]?
Its histamine release is “shown to induce”.

What about the intracellular calcium mobilization [4] of the same substance?
Its intracellular calcium mobilization is “shown to induce”.

What about the “chemotactic activity for CD4+ T cells” value [5] of the same substance?
Its value is “exert chemotactic activity”.

And the “pulsing of human dendritic cells with MHC class I antigenic peptide” value ([6]; FIG. 8a, 2.5 μg FL-[…] + 30 μg LL-37)?
Its value is “to a significant extent”.

And the “pulsing of human dendritic cells with MHC class II antigenic peptide” value ([6]; FIG. 8b, 2.5 μg FL-[…] + 30 μg LL-37)?
Its value is “to a significant extent”.

And the “uptake of antigens in dendritic cells” value ([6]; summary statement, cells of men)?
The value was “enhance the uptake of antigens”.

With “NH2-ILPWKWPWWPWRR-CONH2 [bovine indolicidin]” as the substance, how does the “IFN-γ-producing specific cells, lymph node cells” value ([7]; FIG. 9) read?
The value was “more IFN-γ-producing specific cells”.

And the “IFN-γ-producing specific cells, splenocytes” value [7]?
The value was “more IFN-γ-producing specific cells”.

And the “uptake of antigens in dendritic cells” value [8]?
Its value is “enhance the uptake of antigens”.

With “PR-39: porcine proline-arginine-rich 39-amino-acid cathelicidin peptide (RRRPRPPYLPRPRPPPFFPPRLPPRIPPGFPPRFPPRFPGKR) [reference compound]” as the substance, how does the “chemotactic activity for neutrophils” value [1] read?
Its value is “exert chemotactic activity”.

What does the source list for “bovine dodecapeptide: bovine cathelicidin derived antimicrobial dodecapeptide, SEQ ID NO:4, linear form in Example 3 (RLCRIVVIRVCR)”?
pulsing effect with increasing amounts of carrier-peptide ([8]; Example 3, FIG. 6, 2 μg FL-LFEAIEGFI + 18.75, 37.5, 75, 150 μg linear bovine dodecapeptide): increased significantly; uptake of antigens in dendritic cells [8]: enhance the uptake of antigens

With “murine cathelicidin derived antimicrobial peptide: murine cathelin-related antimicrobial peptide, SEQ ID NO:1 (SRLAGLLRKGGEKIGEKLKKIGQKIKNFFQKL)” as the substance, how does the “IFN-γ-producing specific cells, splenocytes” value [7] read?
Its value is “more IFN-γ-producing specific cells”.

What about the “uptake of antigens in dendritic cells” value [8] of the same substance?
The value was “enhance the uptake of antigens”.

With poly-L-arginine as the substance, how does the “protection from tumor growth” value [9] read?
Its value is “protects animals from tumor growth”.

For poly-L-lysine, which “protection from tumor growth” value [9] is on record?
The value was “protects animals from tumor growth”.
